Laboratory results reported in patent US4894392A, “Aminoalkyl naphthalenediols as host resistance enhancers” (priority 1988, dated 1990).
Where a name gives a salt, the structure may show the parent alone.

Tested on: Pseudomonas aeruginosa
Experiment: In vivo immunopotentiation against challenge with lethal doses of Pseudomonas aeruginosa (cyclophosphamide-immunocompromised mouse model)
Design: species or system random outbred albino CF1 female mice
Conditions: for Relative No. LD50's (Protective Index: number of LD50's of protection of treated animals over the LD50 of CY controls): CY 250 mg/kg i.p. 4 days before P. aeruginosa challenge, test compound injected once, 2 hours after CY
Method: An immunocompromised mouse model, established by intraperitoneal treatment of random outbred albino CF1 female mice (ca. 25 g) with 250 mg/kg body weight of cyclophosphamide (CY) 4 days prior to bacterial challenge with Pseudomonas aeruginosa, was used as the assay system. In this model, test compounds were injected only once (2 hours) after CY treatment. After bacterial challenge, LD50 's (50% lethal doses) were determined. Increased LD50 's in treated mice over controls indicated a return to normality. The LD50 for untreated or vehicle-treated mice was routinely 10^6 -10^7 colony forming units (CFU) of P. aeruginosa organisms. After CY treatment, the LD50 was reduced to 10^1 to 10^2 CFU's. The protection afforded by test compound (Protective Index) was determined by calculating the number of LD50 's of protection of treated animals over the LD50 of CY controls.

SMILES | Relative No. LD50's (Protective Index: number of LD50's of protection of treated animals over the LD50 of CY controls) | LD50 raised over untreated controls (cyclophosphamide-immune compromised mouse, P. aeruginosa lethal challenge) [fold]
CC(C)(C)C1CCC(NCc2ccc3c(CNC4CCC(C(C)(C)C)CC4)c(O)ccc3c2O)CC1 (mixture of isomers) [Example 3, 1,6-Dihydroxy-2,5-bis-(4-tert-butylcyclohexylaminomethyl)-naphthalene dihydrochloride (mixture of isomers)] | 2128 | 
CC1CCCCC1NCc1ccc2c(CNC3CCCCC3C)c(O)ccc2c1O (mixture of isomers) [Example 5, 1,6-Dihydroxy-2,5-bis-(2-methylcyclohexylaminomethyl)-naphthalene dihydrochloride (mixture of isomers)] | 133 | 
CC1CCCC(NCc2ccc3c(CNC4CCCC(C)C4)c(O)ccc3c2O)C1 (mixture of isomers) [Example 6, 1,6-Dihydroxy-2,5-bis-(3-methylcyclohexylaminomethyl)-naphthalene dihydrochloride (mixture of isomers)] | 151 | 
CC(C)(C)C1CCC(NCc2ccc3c(CNC4CCC(C(C)(C)C)CC4)c(O)ccc3c2O)CC1.Cl.Cl (single isomer, unassigned) [Example 4, 1,6-Dihydroxy-2,5-bis-(4-tert-butylcyclohexylaminomethyl)-naphthalene dihydrochloride (single isomer)] | 1000 | 1000
Cl.Cl.Oc1ccc2c(O)c(CNCC3CCCCC3)ccc2c1CNCC1CCCCC1 [Example 2, 1,6-Dihydroxy-2,5-bis-(cyclohexylmethylaminomethyl)-naphthalene dihydrochloride] | 320 | 
C[C@H]1CC[C@H](NCc2ccc3c(CN[C@H]4CC[C@H](C)CC4)c(O)ccc3c2O)CC1.Cl.Cl [Example 7, 1,6-Dihydroxy-2,5-bis-(trans-4-methylcyclohexylaminomethyl)-naphthalene dihydrochloride] | 1000 | 
